Data as given in patent EP0496162A2, “Peptide inhibitors of RAS-GAP interaction” (MERCK & CO. INC., priority 1990, dated 1992).
No end group written: not given here.

What was measured:
[1] = target: T1, S. cerevisiae adenylyl cyclase (Ras Dependent, strain MY1186) (Saccharomyces cerevisiae, UniProt P08678); assay: Yeast adenylyl cyclase assay, Ras-dependent, membranes from strain MY1186 (expresses mammalian Ras); format: biochemical; details: part A
T1 construct: S. cerevisiae strain MY1186 lacks endogenous yeast Ras, expresses viral Ha-Ras, and has a Ras-dependent adenylyl cyclase; endogenous in cells; host or cells: membranes of recombinant S. cerevisiae strain MY1186 (cyclase endogenous; Ha-Ras heterologously expressed)
From the text: (§1) Another Ras-dependent enzymatic assay was used to extend the observed ability of the peptides of the present invention to inhibit Ras function. This system, yeast adenylyl cyclase assay, measures the Ras-dependent conversion of ATP into cyclic AMP (cAMP). […] Furthermore, in S. cerevisiae, regulation of cAMP metabolism appears to be a major function of Ras. This assay system was used to extend the observed Ras inhibitory activity of the peptides of the present invention, to a Ras function which is GAP-unrelated. S. cerevisiae strain FlD lacks functional Ras proteins, however FlD cells have functional adenylyl cyclase in their cell membrane. […] Similarly, a recombinant S. cerevisiae strain MY1186, lacks yeast Ras proteins but expresses mammalian Ras protein which functions with adenylyl cyclase to regulate cAMP metabolisim in the yeast cells. […] In contrast, S. cerevisiae strain JC377-10B contains a mutant form of adenylyl cyclase which constitutively converts ATP into cAMP with or without Ras.
(§2) Ras peptides were tested at the indicated concentrations for inhibition of S. cerevisiae adenylyl cyclase activity. […] Ras-independent activity was assayed with membranes from strain JC377-10B (ras-minus, constitutively active adenylyl cyclase).
(§3) Yeast strain FlD, MY1186 and JC377-10B, were grown in YEHD medium at 30°C. Membrane fractions were prepared from cultures grown to an A₆₆₀ of 0.5 to 1.0 by glusulase digestion [Casperson, G.F. et al., (1983), J. Biol. Chem., 258, pp. 7911-7914], Dounce homogenization of the spheroplasts in buffer containing 50 mM sodium MES [2(N-morpholino) ethanesulfonic acid] […] Adenylyl cyclase assays (100-µL reaction volume) measured the conversion of [α-³²P]ATP to [³²P]cAMP at 30°C, using 50 µg to 100 µg of membrane protein in assays using membranes from yeast strains MY1186 and JC377-10B.. […] Since these membranes contain adenylyl cyclase, but are lacking Ras protein, stimulation of adenylyl cyclase activity may be measured following reconstitution with purified Ras complexed with GTP. […]

[2] = format: physicochemical
Description: Ras peptides were dissolved in either 100% dimethyl formamide (DMF, American Burdick and Jackson) or 100% dimethyl sulfoxide (DMSO, Fluka UV-spectroscopy grade) at a calculated peptide concentration of 1-4 mM. Following 1 minute in a Sonicor SC-200 bath sonicator at room temperature, the peptide solutions were vortexed, and then centrifuged for 5 minutes at room temperature in an Eppendorf microfuge to remove any undissolved material. 20 µL of the cleared peptide solutions were then added to 80 µL of Buffer D in a dilution series covering a range of peptide concentrations from 0.02 µM up to the maximum solubility limit for each peptide. In each dilution, the solvent concentration was maintained at 20%. These peptides solutions were then centrifuged for 5 minutes at room temperature at 10,000 x g, and the cleared supernatants were divided into 2 parts. One part of each cleared peptide dilution was used in a GAP competition assay: 40 µL was added to a 5 µL solution containing 0.1 mg/mL BSA plus 240 fmol Ha-ras p21-[γ-³²P]GTP. Reactions were initiated upon addition of 5 µL of diluted GAP (10 fmol), and analyzed as described above.
The other portion of the cleared peptide solution was measured spectrophotometrically to determine solubility and concentration of the peptides. Extinction coefficients were determined by measuring the absorbance at 277 nm of 2 peptides whose exact concentrations were quantitated by amino acid analysis. The extinction coefficients for peptide Ras 17-37 dissolved in buffer D/20% DMF or peptide Ras 91-103 (SEQ ID NO:14)dissolved in water/20% DMSO, were 2580 cm⁻¹M⁻¹ and 2230 cm⁻¹ M⁻¹, respectively. These values were used to determine the exact concentration for each peptide used at each point in the competition assay. In addition, peptide solubility was confirmed by comparing the light scattering at 600 nm for each peptide solution measured before and after centrifugation. Only concentrations reflecting 100% solubility were used in the dose response curves, and the maximum concentration used for each peptide competitor indicates the limit of solubility for that peptide.

[3] = target: T2, S. cerevisiae adenylyl cyclase (Ras Dependent, strain FlD reconstituted with purified Ras) (Saccharomyces cerevisiae, UniProt P08678); assay: Yeast adenylyl cyclase assay, reconstitution of FlD membranes with purified Ras protein; format: biochemical; details: part B, FlD membranes with 5 µM purified Ras protein, peptide 10 µM
T2 construct: Since these membranes contain adenylyl cyclase, but are lacking Ras protein; endogenous in cells; host or cells: membranes of S. cerevisiae strain FlD
From the text: as §1, §2, §3

T1 sequence (P08678 whole entry): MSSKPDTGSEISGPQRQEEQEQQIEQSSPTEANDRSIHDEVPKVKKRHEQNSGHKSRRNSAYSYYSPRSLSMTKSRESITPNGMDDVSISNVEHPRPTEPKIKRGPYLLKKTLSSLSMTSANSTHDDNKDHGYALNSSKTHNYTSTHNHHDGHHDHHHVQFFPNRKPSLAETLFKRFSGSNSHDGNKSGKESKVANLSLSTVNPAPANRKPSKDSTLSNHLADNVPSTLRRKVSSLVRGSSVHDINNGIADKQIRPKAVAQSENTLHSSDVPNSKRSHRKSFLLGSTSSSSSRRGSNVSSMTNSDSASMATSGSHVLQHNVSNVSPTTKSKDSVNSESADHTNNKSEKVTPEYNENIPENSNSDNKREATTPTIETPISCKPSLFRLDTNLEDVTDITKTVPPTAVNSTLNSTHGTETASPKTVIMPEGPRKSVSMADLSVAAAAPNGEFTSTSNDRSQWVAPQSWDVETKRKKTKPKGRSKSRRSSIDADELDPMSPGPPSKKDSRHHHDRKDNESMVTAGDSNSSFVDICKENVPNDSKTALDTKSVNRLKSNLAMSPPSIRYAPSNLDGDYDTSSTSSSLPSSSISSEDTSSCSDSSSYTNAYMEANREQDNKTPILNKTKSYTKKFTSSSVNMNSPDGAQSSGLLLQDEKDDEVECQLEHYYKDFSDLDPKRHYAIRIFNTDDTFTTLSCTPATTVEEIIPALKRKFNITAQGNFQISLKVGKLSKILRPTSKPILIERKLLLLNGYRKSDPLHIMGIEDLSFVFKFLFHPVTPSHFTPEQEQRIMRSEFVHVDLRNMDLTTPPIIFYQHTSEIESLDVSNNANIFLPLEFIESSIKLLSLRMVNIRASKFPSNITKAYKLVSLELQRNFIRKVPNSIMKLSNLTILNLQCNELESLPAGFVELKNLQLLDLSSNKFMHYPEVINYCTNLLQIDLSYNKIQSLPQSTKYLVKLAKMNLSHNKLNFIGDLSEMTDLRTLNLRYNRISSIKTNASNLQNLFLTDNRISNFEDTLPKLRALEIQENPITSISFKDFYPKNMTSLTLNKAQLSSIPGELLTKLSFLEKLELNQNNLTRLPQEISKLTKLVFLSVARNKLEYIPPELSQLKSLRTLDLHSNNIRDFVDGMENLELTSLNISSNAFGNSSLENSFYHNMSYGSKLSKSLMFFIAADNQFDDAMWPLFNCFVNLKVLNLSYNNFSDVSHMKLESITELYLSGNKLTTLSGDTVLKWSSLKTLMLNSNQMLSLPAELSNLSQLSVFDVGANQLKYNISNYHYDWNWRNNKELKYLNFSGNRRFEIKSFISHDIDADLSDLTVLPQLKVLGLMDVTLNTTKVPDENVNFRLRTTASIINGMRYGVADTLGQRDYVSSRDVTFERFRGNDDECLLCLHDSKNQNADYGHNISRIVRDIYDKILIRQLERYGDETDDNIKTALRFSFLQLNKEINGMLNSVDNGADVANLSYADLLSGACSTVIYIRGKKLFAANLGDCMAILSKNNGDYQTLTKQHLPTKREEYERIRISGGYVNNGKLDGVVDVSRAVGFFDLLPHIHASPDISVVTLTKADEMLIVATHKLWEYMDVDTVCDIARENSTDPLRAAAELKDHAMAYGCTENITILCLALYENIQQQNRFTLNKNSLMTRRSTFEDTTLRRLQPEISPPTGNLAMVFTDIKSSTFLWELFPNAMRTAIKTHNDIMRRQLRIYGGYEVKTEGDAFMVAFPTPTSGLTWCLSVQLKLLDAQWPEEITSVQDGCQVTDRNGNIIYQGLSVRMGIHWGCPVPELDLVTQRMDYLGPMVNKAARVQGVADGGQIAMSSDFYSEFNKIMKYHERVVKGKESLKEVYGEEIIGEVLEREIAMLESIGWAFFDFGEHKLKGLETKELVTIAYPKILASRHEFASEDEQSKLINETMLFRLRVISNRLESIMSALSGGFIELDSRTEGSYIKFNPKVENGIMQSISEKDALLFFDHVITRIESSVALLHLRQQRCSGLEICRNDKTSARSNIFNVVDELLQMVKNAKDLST
T2 sequence (P08678 whole entry): as above

| Molecule | %Inhibition of Adenylyl Cyclase Activity Ras Dependent ([1]; peptide 19 µM) [%] | Maximum Solubility [2] [µM] | %Inhibition of Adenylyl Cyclase Activity Ras Dependent [3] [%] | %Inhibition of Adenylyl Cyclase Activity Ras Dependent ([1]; peptide 40 µM) [%] | %Inhibition of Adenylyl Cyclase Activity Ras Dependent ([1]; peptide 100 µM) [%] |
| --- | --- | --- | --- | --- | --- |
| CC[C@H](C)[C@H](NC(=O)[C@H](CC(C)C)NC(=O)[C@H](CCC(N)=O)NC(=O)[C@@H](NC(=O)[C@@H](NC(=O)[C@H](CC(C)C)NC(=O)[C@H](C)NC(=O)[C@@H](N)CO)[C@@H](C)O)[C@@H](C)CC)C(=O)N[C@@H](CCC(N)=O)C(=O)N[C@@H](CC(N)=O)C(=O)N[C@@H](Cc1c[nH]cn1)C(=O)N[C@@H](Cc1ccccc1)C(=O)N[C@H](C(=O)N[C@@H](CC(=O)O)C(=O)N[C@@H](CCC(=O)O)C(=O)N[C@@H](Cc1ccc(O)cc1)C(=O)O)C(C)C [Ras 17-32] | 34 | 19 | 26 ± 2 |  |  |
| SALTIQLIQNHFVDEYDPTIE [Ras 17-37] |  | 40 |  | 58 ± 2 |  |
| LIQNHFVDEYDPTIE [Ras 23-37] |  | 250 | 5 ± 1 |  | 2 |
